Measurements taken from patent publication US9456589B2, “Elasmobranch-repelling compounds and methods of use” (priority 2005, dated 2016).
Values joined by “and” are separate entries in the source; they are usually repeats but may differ in a detail not shown here. Equal values may be shown once.

What was measured:
[1] = system: nurse sharks; assay: Tonic immobility, Bite Assay; format: in vivo, C. cirratum
Description: One bioassay used to observe and measure flight response is the tonic immobility test. Tonic immobility is a state of paralysis that typically occurs when a shark is subject to inversion of its body along the longitudinal axis. This state is called “tonic,” and the shark can remain in this state for up to 15 minutes thereby allowing researchers to observe effects of chemical repellents. The “tonic” state of the shark is first established by releasing seawater in proximity to the “tonic” shark with the same delivery instrument and at the same distance as a “test” repellent compound will be released. Some controls are released with a high flow rate (30 mL/sec) in order to establish that sharks are not awakened by a jet of fluid over their noses. Once behavioral controls are established, a compound or composition that may have a repelling effect is delivered to the shark. […] Using this tonic immobility bioassay researches can quantify the strength of a repellent effect. […]
In Bite Assays, a dose of typically less than 5 mL of 3-methylbutanal was presented directly into the shark's mouth using a pipette. […] Because the delivery was directly into the shark's mouth and responses were generally observed immediately upon delivery, time to response was not recorded.

[2] = system: captive Cobia and Yellowfin Tuna; assay: Feeding behavior of captive fish in the presence of aldehydes; format: in vivo
Text: Similarly, teleost reef fish, such as Triggerfish and Snappers, have been observed feeding and swimming in a cloud of shark-repelling aldehydes. This behavior is presumed to result from the lack of aldehyde-receptors in the fishes' gustatory system.

[3] = system: sharks (lemon, nurse, blacktip, tiger, blacknose pooled); assay: Tonic immobility, Syringe 3/5/10 Assay, summary over species; format: in vivo
Description: (§1) One bioassay used to observe and measure flight response is the tonic immobility test. Tonic immobility is a state of paralysis that typically occurs when a shark is subject to inversion of its body along the longitudinal axis. This state is called “tonic,” and the shark can remain in this state for up to 15 minutes thereby allowing researchers to observe effects of chemical repellents. The “tonic” state of the shark is first established by releasing seawater in proximity to the “tonic” shark with the same delivery instrument and at the same distance as a “test” repellent compound will be released. Some controls are released with a high flow rate (30 mL/sec) in order to establish that sharks are not awakened by a jet of fluid over their noses. Once behavioral controls are established, a compound or composition that may have a repelling effect is delivered to the shark. If the compound or composition engenders a flight response, the shark will awaken from the tonic state and rapidly attempt to flee the delivered repellent. Using this tonic immobility bioassay researches can quantify the strength of a repellent effect.
In the tonic immobility studies disclosed herein, several different methods were employed for delivery of repelling compounds. A first method for delivery of chemical repellent in tonic immobility studies employed a “Syringe 3/5/10 Assay” method. The “Syringe 3/5/10 Assay” method is so named because a test repellent is delivered to a shark from a distance of about “3” inches with a bolus of about “5” mL with a response to the test repellent considered positive if the shark reacts with a change in behavior within less than about “10” seconds from the time of delivery.
The “3/5/10 Syringe Assay” as employed herein delivered a dose of 5-6 mL of a test chemical repellent from a syringe fixed with a needle having a gauge of about 22 from a distance at least 3 inches in front of a shark. Because the test chemical repellent was delivered at a distance from the shark's nares and mouth, a cloud of test chemical repellent was dispersed over the shark within the water column. The dispersed test repellent was subject to water current direction, dispersion and dilution. As a result, a flight response within 10 seconds was considered a positive repellency response. […] Time from delivery to response is related to the size of the bolus delivered from the syringe, distance of the shark from the syringe and water current.
In Syringe 3/5/10 Assays, 5-6 mL of 3-methylbutanal was delivered at least 3 inches in front of the shark's mouth. A cloud of the repellent dispersed over the shark within the water column. […] As noted above, because the dispersion of the chemical repellent upon delivery is affected by volume of repellent, water current, and other factors, the time between delivery and response was not correlatable with the potency of the repellent.

[4] = system: blue sharks; assay: Tonic immobility, syringe delivery to the mouth of blue sharks; format: in vivo, Prionace glauca; conditions: two blue sharks, two assays each, 20 mL or less
Text: The sharks had been captured on rod and reel and were held in tonic immobility along a boat.

[5] = system: sharks (species pooled); assay: Tonic immobility, total of delivery methods not including Micropipette assays; format: in vivo
Description: as §1
Table 1, which summarizes the data in Tables 14 and 15, evidences the gustatory repellent characteristics of methylbutanals. In 35 of 36 assays (combining columns “Y” and “R” under the column labeled “Total (Not including Micropipette Assays)” to arrive at a 97% effectiveness rate), including assays on lemon, nurse, tiger and blacktip sharks, the gustatory repellent activity of 3-methylbutanal was established. In 81% of assays, tonic immobility was fully terminated. […] In only a single assay did a shark not respond to treatment with 3-methylbutanal.

[6] = system: juvenile lemon and nurse sharks; assay: Tonic immobility, Micropipette Assay, summary over species; format: in vivo; conditions: juvenile lemon and nurse sharks
Description: as §1
A fourth method of delivery was called the “Micropipette Assay” method of delivery. In this method, a very small dose (fraction of a mL) of a test substance was delivered directly into a shark's mouth. […] A response, such as a cough or other notable action of the shark, was usually noted when effective gustatory repellents were delivered directly into a shark's mouth while in tonic immobility.
The Micropipette Assay method has not proven to be a particularly effective method of assaying for a flight response in elasmobranchs. The Micropipette Assay method is, nevertheless, an excellent method for specifying that a gustatory response has occurred. It is effective for specifying a gustatory response because the micropipette delivery method allows direct delivery of an entire bolus of test substance into the mouth of the shark being tested.
An oral dose of no more than 400 microliters was then delivered by micropipette into the mouth of a juvenile nurse shark. Tonic immobility was terminated. For each derivative of butyric acid and each naturally occurring acid listed in Table 9, a first micropipette assay was performed on a juvenile lemon shark with no more than 100 microliters of test acid in an oral dose. A second micropipette assay was then performed on a juvenile nurse shark with no more than 400 microliters of test acid in an oral dose. In each test, tonic immobility was terminated.
In a first set of studies on the effectiveness of carboxylic acids as elasmobranch repellents, each tested substance was subjected to the following protocol. […] An oral dose of no more than 400 microliters was then delivered by micropipette into the mouth of a juvenile nurse shark. Tonic immobility was terminated. […] The data evidences the gustatory repelling activity of carboxylic acids.

[7] = species and delivery methods pooled

SMILES: CC(C)CC=O [3-methylbutanal]
- Bite Y (termination of tonic immobility), trials of trials [1]: each resulting in termination of tonic immobility and 2/2
- feeding behavior of fish in the presence of the aldehyde [2]: slightly increased
- Syringe 3/5/10 Y (termination of tonic immobility), trials of trials [3]: 7/7
- Syringe 3/5/10 Y, percent of trials [3]: 100%
- response to direct delivery to the mouth [4]: behavioral response (classic mouth-agape response)
- assays with termination of tonic immobility or behavior change (Y and R combined), not including Micropipette assays ([5]; Hd Syringe, Syringe 3/5/10 and Bite, lemon, nurse, tiger, blacktip): 40 of 41 and 35 of 36
- effectiveness rate (Y and R combined), not including Micropipette assays ([5]; lemon, nurse, tiger, blacktip): 97%
- Total (Not including Micropipette assays / Effective Delivery Methods) N, trials of trials [5, 7]: single and 1/36
- Total (Not including Micropipette assays / Effective Delivery Methods) R, trials of trials [5, 7]: 6/36
- Total (Not including Micropipette assays / Effective Delivery Methods) Y, trials of trials [5, 7]: 29/36
- Total N, percent of trials [5, 7]: (3%)
- Micropipette assays with a behavioral response within tonic immobility [6]: ten
- Micropipette assays with a gustatory response (termination or behavior change) [6]: 16 of 20 and fifteen
- Micropipette assays with no response [6]: five
- Micropipette Y (termination of tonic immobility), trials of trials ([6]; oral dose): five
